Measured values: PubChem BioAssay (NCI)
“And” between values parts separate entries of the source, which are not always exact repeats. Identical values can stand only once.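 Cells were grown in 96-well plates and exposed to each compound for 48 hours at five concentrations; endpoints were interpolated linearly between bracketing concentrations, or set to the highest concentration if not reached. The concentration for 50% growth inhibition is given as GI50. The concentration for full growth arrest is given as TGI.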

Experiments:
Experiment in all cases: inhibition of tumour cell growth, NCI panel, 48 h
DU-145 prostate = system: DU-145 prostate
HCT-15 colon = system: HCT-15 colon
KM12 colon = system: KM12 colon
LOX IMVI melanoma = system: LOX IMVI melanoma
MOLT-4 leukemia = system: MOLT-4 leukemia
NCI-H226 lung = system: NCI-H226 lung
OVCAR-4 ovarian = system: OVCAR-4 ovarian
RXF 393 renal = system: RXF 393 renal
SK-OV-3 ovarian = system: SK-OV-3 ovarian
SN12C renal = system: SN12C renal

SMILES | GI50 (DU-145 prostate) [µM] | TGI (DU-145 prostate) [µM] | GI50 (HCT-15 colon) | TGI (HCT-15 colon) | GI50 (KM12 colon) | TGI (KM12 colon) | GI50 (LOX IMVI melanoma) | TGI (LOX IMVI melanoma) | GI50 (MOLT-4 leukemia) | TGI (MOLT-4 leukemia) | GI50 (NCI-H226 lung) [µM] | TGI (NCI-H226 lung) | GI50 (OVCAR-4 ovarian) [µM] | TGI (OVCAR-4 ovarian) | GI50 (RXF 393 renal) | TGI (RXF 393 renal) | GI50 (SK-OV-3 ovarian) [µM] | TGI (SK-OV-3 ovarian) | GI50 (SN12C renal) | TGI (SN12C renal)
CC1CN(S(=O)(=O)c2oc(-c3ccc(Cl)cc3)nc2C#N)CC(C)O1 (centres undefined) | 1.92 | 4.1 | 1.41 µM | 3.04 µM | 10.3 µM | 23.5 µM | 0.926 µM | 2.35 µM | 1.19 µM | 4.5 µM | 18.1 | 39.9 µM | 2.02 | 4.65 µM | 1.69 µM | 3.15 µM | 25.1 | 70.6 µM | 1.7 µM | 3.23 µM
CC1=C2C(=CC(C)(C)[C@@H]2O)C(=O)[C@](C)(O)C12CC2 | 0.00545 | 0.0262 | 0.00514 µM |  | 0.0205 µM | 0.123 µM and 0.411 µM | 0.0125 µM | 0.0529 µM and 0.0384 µM | 0.0137 µM | 0.134 µM and < 0.0208 µM | 0.0709 | 0.232 µM and 0.171 µM | 0.0147 | 0.201 µM and 0.0458 µM |  | 0.0199 µM | 0.0294 | 0.213 µM and 0.0676 µM | 0.0387 µM | 0.216 µM and 0.184 µM
CCn1c(-c2cc3c([nH]c4ccccc43)c(-c3cccc(O)c3)n2)n[nH]c1=S | 4.87 | 16.7 | 3.37 µM | 16.1 µM | 3.24 µM | 12.4 µM | 2.93 µM | 12.7 µM | 2.38 µM | 6.77 µM | 6.45 | 55.8 µM | 3.12 | 13.1 µM | 2.01 µM | 6.5 µM | 4.32 | 17.5 µM | 4.02 µM | 22.1 µM
Cc1nc2ccc(Br)cc2c(=O)n1-c1ccc(NC2OCC(O)C(O)C2O)cc1 (centres undefined) |  | > 100 | 19.7 µM and > 100 µM | 43.6 µM and > 100 µM | 26.3 µM and > 100 µM | 68.4 µM and > 100 µM | 15.3 µM and > 100 µM | 33.8 µM and > 100 µM | 19.6 µM and 71.2 µM | > 100 µM |  | > 100 µM |  | > 100 µM | 32.1 µM and > 100 µM | 51.4 µM and > 100 µM | > 100 | > 100 µM | 30 µM and > 100 µM | > 100 µM
C#CCNC(=S)N/N=C(\C)c1ccccn1 | 0.404 | > 59.3 | 0.36 µM | > 100 µM | 0.426 µM | > 100 µM | 0.588 µM | > 32 µM | 0.126 µM |  | 0.406 | 3.33 µM | 0.0519 | 1.35 µM | 0.641 µM | 4.9 µM | 3 | > 100 µM | 0.388 µM | > 100 µM
O=C(O)/C=C\C(=O)Nc1ccccn1 |  | > 100 |  | > 100 µM |  | > 100 µM |  | > 100 µM |  | > 100 µM |  | > 100 µM |  | > 100 µM |  | > 100 µM |  | > 100 µM |  | > 100 µM
Cc1ncc(C(=O)Nc2ccc(CN3CCN(C)CC3)c(C(F)(F)F)c2)cc1C#Cc1ccc(N)nc1 | 0.186 | 4.12 | 0.224 µM | 3.7 µM | 0.0135 µM | 1.21 µM | 0.131 µM | 0.496 µM | 0.155 µM | 7.52 µM | 0.206 | 1.66 µM | 0.122 | 3.74 µM | 0.197 µM | 0.892 µM | 0.395 | 2.56 µM | 0.135 µM | 2.25 µM
NC(=O)[C@@H](CC1CC1)[C@@H](CCC(F)(F)F)C(=O)N[C@H]1N=C(c2ccccc2)c2cccc(F)c2NC1=O | > 100 | > 100 | > 100 µM | > 100 µM | > 100 µM | > 100 µM | 48 µM | > 100 µM | 18.5 µM | > 100 µM | > 100 | > 100 µM | 54.9 | > 100 µM | 68 µM | > 100 µM | > 100 | > 100 µM | > 100 µM | > 100 µM
Cn1c(=O)c2[nH]c(SCCN3CCOCC3)nc2n(C)c1=S |  | > 100 |  | > 100 µM |  | > 100 µM |  | > 100 µM |  | > 100 µM |  | > 100 µM |  | > 100 µM |  | > 100 µM |  | > 100 µM |  | > 100 µM
CCOc1ccc(/C(C=O)=C(\Cl)c2ccc(OC)cc2)cc1 |  | > 100 |  | > 100 µM |  | > 100 µM |  | > 100 µM |  | > 31.6 µM |  | > 100 µM |  | > 100 µM |  | > 100 µM |  | > 100 µM |  | > 100 µM
C=C/C(C)=C/C[C@]1(C)[C@H](C)[C@@H](OC(=O)CCC)[C@H](O)[C@@]23C(=C[C@H](OC)C[C@@H]12)[C@@H](OC(=O)CCC)O[C@H]3OC(C)=O | 1.53 | 2.9 | 0.34 µM | 1.29 µM | 0.55 µM | 1.96 µM | 1.22 µM | 2.56 µM | 0.348 µM | 1.55 µM | 0.38 | 1.34 µM | 0.351 | 1.34 µM | 0.262 µM | 0.696 µM | 0.266 | 0.806 µM | 0.316 µM | 1.4 µM
C1=C/COCc2cc(ccc2OCCN2CCCC2)Nc2nccc(n2)-c2ccc(o2)COC/1 | 1.57 | 13.8 | 1.11 µM | 9.11 µM | 0.451 µM | 9.37 µM | 0.817 µM | 2.29 µM | 1.63 µM | 5.57 µM | 1.74 | 6.13 µM | 2.33 | 10.4 µM | 0.397 µM | 1.64 µM | 2.44 | 7.53 µM | 0.99 µM | 5 µM
CN(C)c1ccc(/C=C2\N=C(c3ccccc3)N(c3cc(C(F)(F)F)ccc3Cl)C2=O)cc1 | > 100 | > 100 | > 100 µM | > 100 µM | > 100 µM | > 100 µM | > 100 µM | > 100 µM | > 100 µM | > 100 µM | > 90.4 | > 100 µM | > 69 | > 100 µM | > 100 µM | > 100 µM | > 100 | > 100 µM | > 100 µM | > 100 µM
COc1ccc(C(=O)c2cc3c(N)c(C(=O)Nc4ccccc4)sc3nc2C)cc1 | 2.21 | > 100 | 0.426 µM | > 100 µM | 0.539 µM | > 100 µM | 0.739 µM | > 100 µM | 0.796 µM | > 100 µM | 11.1 | > 100 µM | 16.1 | > 100 µM | 0.485 µM | > 100 µM | 0.763 | > 100 µM | 1.68 µM | > 100 µM
CCN(Cc1cc(F)ccc1F)c1ccc(CO)c(Cl)c1 | 15.5 | 36.7 | 12.8 µM | 32.3 µM | 14.5 µM | 30.8 µM | 14.6 µM | 29.2 µM | 18.1 µM | 53.8 µM | 0.0484 | 0.178 µM | 0.129 | 1.15 µM | 4.16 µM | 17.3 µM | 8.94 | 29.1 µM | 11.8 µM | 25.6 µM
COc1ccc(NC(=O)/C=C(C)/C=C/C=C(C)/C=C/C2=C(C)CCCC2(C)C)cc1 | 8.2 | 20.3 | 4.51 µM | 18.1 µM | 4.4 µM | 14.5 µM | 2.93 µM | 10.6 µM | 2.34 µM | 5.96 µM | 2.83 | 6.7 µM | 5.85 | 19 µM | 12.8 µM | 26.2 µM | 17 | 30.7 µM | 11.2 µM | 23.9 µM
Cc1cc(Cl)ccc1OCC(=O)Nc1nc(N)nc(N)n1 |  | > 100 |  | > 100 µM |  | > 100 µM |  | > 100 µM |  | > 100 µM |  | > 100 µM |  | > 100 µM |  | > 100 µM |  | > 100 µM |  | > 100 µM
COc1cccc(CN(C)c2ccc(CO)c(Cl)c2)c1 | 37.1 | > 100 | 24 µM | > 100 µM | 29.8 µM | > 100 µM | 34.7 µM | > 100 µM | 33.1 µM | > 100 µM | 0.0588 | 0.202 µM | 1.19 | 29.4 µM | 11.2 µM | > 62.2 µM | 11.3 | > 60.7 µM | 24.7 µM | > 100 µM
CN(Cc1ccc(C(F)(F)F)cc1)CC(O)C(=O)Nc1ccc(Cl)cc1 (centres undefined) | 1.38 | 2.77 | 1.28 µM | 2.61 µM | 1.54 µM | 2.97 µM | 1.05 µM | 2.3 µM | 1.42 µM | 3.28 µM | 1.83 | 3.7 µM | 1 | 2.26 µM | 1.51 µM | 2.96 µM | 1.48 | 2.96 µM | 1.49 µM | 2.88 µM
Cn1cccc1-c1cc(-c2ccccc2)[nH]c(=O)c1C#N | > 100 | > 100 | > 100 µM | > 100 µM | > 100 µM | > 100 µM | > 100 µM | > 100 µM | 18.9 µM | 45.4 µM | > 100 | > 100 µM | > 100 | > 100 µM | > 100 µM | > 100 µM | > 100 | > 100 µM | > 100 µM | > 100 µM
C=C1C(=O)O[C@H]2[C@H]1CC/C(COC(=O)NCc1ccc(OC)cc1)=C\CC[C@@]1(C)O[C@@H]21 | 0.726 | 2.95 | 0.57 µM | 1.87 µM | 4.75 µM | 20.5 µM | 0.405 µM | 1.47 µM | 0.843 µM | 2.31 µM | 1.1 | 5.01 µM | 0.992 | 13.5 µM | 0.509 µM | 1.07 µM | 14.6 | 29.3 µM | 3.4 µM | 12.4 µM
Cc1ccc2nc(-c3ccc(OCC(=O)N=Nc4c(O)[nH]c5ccccc45)cc3)[nH]c2c1 | 3.29 | 13.5 | 8.69 µM | > 100 µM | 3.55 µM | 13.2 µM | 1.83 µM | 3.52 µM | 2.99 µM | 8.87 µM | 11.2 | 56.1 µM | 1.95 | 4.09 µM | 7.94 µM | 24.4 µM | 17.5 | 37 µM | 2.42 µM | 7.73 µM
COc1cc2ncnc(-n3ncc4cc(NC(=O)Nc5ccc(Cl)c(Cl)c5)ccc43)c2cc1OC | 3.2 | 11.9 | 1.93 µM | 4.87 µM | 0.0514 µM | 9.66 µM | 1.97 µM | 3.76 µM | 2.04 µM | 11.4 µM | 2.45 | 4.8 µM | 1.92 | 3.89 µM | 1.53 µM | 3.29 µM | 2.04 | 4.03 µM | 2.1 µM | 4.78 µM
Cc1cc(C)c2c(n1)sc1c(N)ncnc12 | > 25 | > 25 | > 25 µM | > 25 µM | > 22.3 µM | > 25 µM | > 25 µM | > 25 µM | > 25 µM | > 25 µM | 11.9 | > 25 µM | > 25 | > 25 µM | 8.72 µM | > 25 µM | > 25 | > 25 µM | > 22.3 µM | > 25 µM
